Numbers after ± are expanded uncertainties.
Conditions: 101.33 kPa, Liquid, Capillary tube (Ostwald / Ubbelohde) method

Row | Compound | kinematic viscosity (298.15 K) | kinematic viscosity (303.15 K) | kinematic viscosity (308.15 K) | kinematic viscosity (313.15 K) | kinematic viscosity (318.15 K)
1 | FC(F)(F)C1(F)C(F)(F)C(F)(F)C(F)(F)C(F)(F)C1(F)F [perfluoro(methylcyclohexane)] | 9.31e-07 ± 8e-09 m2/s | 8.43e-07 ± 9e-09 m2/s | 7.72e-07 ± 8e-09 m2/s | 7.22e-07 ± 9e-09 m2/s | 6.84e-07 ± 9e-09 m2/s
2 | Fc1c(F)c(F)c(F)c(F)c1F [hexafluorobenzene] | 5.81e-07 ± 9e-09 m2/s | 5.35e-07 ± 1.1e-08 m2/s | 4.91e-07 ± 4e-09 m2/s | 4.5e-07 ± 7e-09 m2/s | 4.23e-07 ± 9e-09 m2/s
3 | FC1(F)C(F)(F)C(F)(F)C2(F)C(F)(F)C(F)(F)C(F)(F)C(F)(F)C2(F)C1(F)F (stereo not given) [perfluorodecalin] | 2.803e-06 ± 1.6e-08 m2/s | 2.448e-06 ± 1.4e-08 m2/s | 2.159e-06 ± 1.4e-08 m2/s | 1.917e-06 ± 1.1e-08 m2/s | 1.709e-06 ± 1e-08 m2/s
4 | FC(F)(F)C(F)(F)C(F)(F)C(F)(F)C(F)(F)C(F)(F)F [perfluorohexane] | 4.17e-07 ± 5e-09 m2/s | 3.97e-07 ± 9e-09 m2/s | 3.72e-07 ± 4e-09 m2/s | 3.57e-07 ± 5e-09 m2/s | 3.43e-07 ± 4e-09 m2/s
5 | Fc1c(F)c(F)c(C(F)(F)F)c(F)c1F [octafluorotoluene] | 5.88e-07 ± 4e-09 m2/s | 5.51e-07 ± 5e-09 m2/s | 5.16e-07 ± 4e-09 m2/s | 4.84e-07 ± 4e-09 m2/s | 4.57e-07 ± 4e-09 m2/s

Other lines, results leading:

Row | kinematic viscosity (298.15 K) | kinematic viscosity (303.15 K) | kinematic viscosity (308.15 K) | kinematic viscosity (313.15 K) | kinematic viscosity (318.15 K) | Compound
6 | 7.11e-07 ± 7.4e-09 m2/s | 6.56e-07 ± 6.9e-09 m2/s | 6.08e-07 ± 6.4e-09 m2/s | 5.65e-07 ± 6e-09 m2/s | 5.27e-07 ± 5.6e-09 m2/s | FC(F)(F)C(F)(F)C(F)(F)C(F)(F)C(F)(F)C(F)(F)C(F)(F)C(F)(F)F [octadecafluorooctane]
7 | 1e-06 ± 1.2e-08 m2/s | 9.11e-07 ± 9e-09 m2/s | 8.33e-07 ± 8e-09 m2/s | 7.73e-07 ± 6e-09 m2/s | 7.14e-07 ± 7e-09 m2/s | FC(F)(F)C(F)(F)C(F)(F)C(F)(F)C(F)(F)C(F)(F)C(F)(F)C(F)(F)C(F)(F)F [eicosafluorononane]
8 | 1.065e-06 ± 1e-08 m2/s | 9.96e-07 ± 1e-08 m2/s | 9.05e-07 ± 1.1e-08 m2/s | 8.37e-07 ± 6e-09 m2/s | 7.51e-07 ± 1.1e-08 m2/s | FC(F)(F)C(F)(F)C(F)(F)C(F)(F)C(F)(F)C(F)(F)C(F)(F)C(F)(F)Br [1-bromoperfluorooctane]
9 | 5.43e-07 ± 4e-09 m2/s | 5.12e-07 ± 9e-09 m2/s | 4.82e-07 ± 1.1e-08 m2/s | 4.48e-07 ± 7e-09 m2/s | 4.34e-07 ± 7e-09 m2/s | FC(F)(F)C(F)(F)C(F)(F)C(F)(F)C(F)(F)C(F)(F)C(F)(F)F [hexadecafluoroheptane]

Reference: the NIST ThermoML archive (doi:10.1021/je700632z)
